Measured values reported in PMC8370991, “Structural basis for the inhibition of HTLV-1 integration inferred from cryo-EM deltaretroviral intasome structures” (Nature Communications, 2021).
Where two headings read alike, the source gives them in different places.

How the values were obtained:
STLV-1 IN (WT) = test: In vitro strand transfer assay with wild-type STLV-1 IN; type: biochemical; design: STLV-1 WT strand transfer activity: unit not given here
Description: (§1) For STLV-1 IN, the reaction conditions were 25 mM BTP-HCl pH 6, 0.1 μM STLV-1 IN, 2 μM vDNA, 60 mM NaCl, 13.28 mM DTT, 10 mM MgCl2, 10 μM ZnCl2. STLV-1 IN and LEDGF/ΔIBD-B56γ were co-incubated at the above conditions at a 2:1 molar ratio, at 4 °C for 30 min. Donor vDNA was then added and the mixture was co-incubated at 37 °C for 10 min. For INSTI dose–response experiments, either the INSTI or DMSO control was then added, the sample was mixed and kept at 4 °C for an additional 15 min. Strand-transfer reactions were initiated by the addition of 300 ng of pGEM-9Zf(-) supercoiled plasmid DNA and stopped after 15 min of 37 °C incubation by adding 0.5% SDS and 25 mM EDTA, pH 8.0.
(§2) Proteins were degraded by incubation with 30 μg of proteinase K (Roche) at 37 °C for 1 h. DNA was precipitated at −20 °C overnight in the presence of ethanol supplemented with 20 μg of glycogen and then resuspended in 1.5× agarose loading dye. The DNA products were separated by electrophoresis through 1.5% agarose gel and stained with ethidium bromide and imaged using the BioRad GelDox XR + imager. The data were analysed and the IC50 calculated as previously described. In brief, the DNA band that corresponds to the concerted integration product was quantified by densitometry in ImageLab 4.1 (Bio-Rad). All experiments were done in triplicate. Quantified data points were fitted to dose–response curves in Prism 9. The cumulative standard deviation for each drug was calculated as an average of the upper limit and lower limit values: Lowerlimit=IC50/10^logSE(IC50) Upperlimit=IC50×10^logSE(IC50)

STLV-1 IN(A219E) = test: In vitro strand transfer assay with STLV-1 IN(A219E); type: biochemical; design: STLV-1 A219E strand transfer activity: unit not given here
Description: as §1, §2

recombinant HTLV-1 IN [1] = target: T1, recombinant HTLV-1 IN (Human T-cell leukemia virus 1, UniProt P03362); conditions: previously obtained values, cited from earlier work
T1 construct: made in house
T1 sequence (P03362 1168-1462): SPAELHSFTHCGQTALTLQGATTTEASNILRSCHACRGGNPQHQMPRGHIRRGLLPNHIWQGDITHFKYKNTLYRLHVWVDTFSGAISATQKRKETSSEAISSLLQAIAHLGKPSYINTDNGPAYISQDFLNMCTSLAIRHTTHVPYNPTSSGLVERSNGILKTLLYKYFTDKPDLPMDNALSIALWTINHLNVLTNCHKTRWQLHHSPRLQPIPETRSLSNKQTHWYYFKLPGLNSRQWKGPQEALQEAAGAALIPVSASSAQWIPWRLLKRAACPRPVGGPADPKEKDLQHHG

HIV-1 = conditions: cited from earlier work
recombinant HTLV-1 IN [2] = target: T1, recombinant HTLV-1 IN; test: In vitro integration strand transfer assay with HTLV-1 IN; type: biochemical; conditions: INSTI at 634 nM
Description: We used in vitro strand transfer assays to screen this small molecule library for its ability to inhibit recombinant HTLV-1 IN. The enzyme was incubated with an oligonucleotide vDNA donor mimic in the presence or absence of INSTIs and was allowed to react with a supercoiled plasmid mimicking target DNA. During the screening, the concentration of each compound was adjusted to 634 nM to provide optimal resolution of efficacy between well- and under-performing compounds.
The donor vDNA that mimics the 3′-processed LTR of HTLV-1 or STLV-1 DNA was preassembled by annealing the U5_S20Q_UP and U5_S20Q_B or MarB43_U5_S30UP or MarB43_U5_S30B oligonucleotides, respectively (Supplementary Table 4) in 100 mM Tris pH 7.4, 400 mM NaCl. For HTLV-1 IN, strand transfer reactions were conducted in a solution of 24.3 mM PIPES pH 6.0, 138.4 mM NaCl, 16.6 mM MgCl2, 5.8 μM ZnCl2, 12.7 mM DTT, 0.53 μM donor DNA and 4 μg of HTLV-1 IN[9],[39]. In brief, the reaction was incubated at RT for 15 min in the presence of an INSTI or dimethyl sulfoxide (DMSO) control and the reaction was started by the addition of 300 ng of pGEM-9Zf(-) supercoiled plasmid DNA. The reaction was incubated for 1 h at 37 °C and stopped by adding 0.5% SDS and 25 mM ethylenediaminetetraacetic acid (EDTA), pH 8.0.
as §2

HTLV-1 = conditions: cited from earlier work
[3] = log10 concentration -3.69897, column 1 of 3
[4] = log10 concentration -3.69897, column 2 of 3
[5] = log10 concentration -4.69897, column 1 of 3
[6] = log10 concentration -4.69897, column 2 of 3
[7] = log10 concentration -5.69897, column 1 of 3
[8] = log10 concentration -5.69897, column 2 of 3
[9] = log10 concentration -6.19791, column 1 of 3
[10] = log10 concentration -6.19791, column 2 of 3
[11] = log10 concentration -6.69897, column 1 of 3
[12] = log10 concentration -6.69897, column 2 of 3
[13] = log10 concentration -7.19791, column 1 of 3
[14] = log10 concentration -7.19791, column 2 of 3
[15] = log10 concentration -7.69897, column 1 of 3
[16] = log10 concentration -7.69897, column 2 of 3
[17] = log10 concentration -8.69897, column 1 of 3
[18] = log10 concentration -8.69897, column 2 of 3
[19] = log10 concentration -10.699, column 1 of 3
[20] = log10 concentration -10.699, column 2 of 3

In the case of `Cc1nnc(C(=O)NC(C)(C)c2nc(C(=O)NCc3ccc(F)cc3)c(O)c(=O)n2C)o1` [Raltegravir], the “sensitivity of STLV-1 IN to the inhibitor” value (STLV-1 IN (WT); Supplementary Fig. 9) is reported as “highly sensitive”, the “STLV-1 WT strand transfer activity” value (STLV-1 IN (WT); log10 concentration -3.69897) is reported as 15.0259 and the “STLV-1 WT strand transfer activity” value (STLV-1 IN (WT); [3]) is reported as 3.382. The “STLV-1 WT strand transfer activity” value (STLV-1 IN (WT); [4]) was 1.339, the “STLV-1 WT strand transfer activity” value (STLV-1 IN (WT); log10 concentration -4.69897) was 15.0259 and the “STLV-1 WT strand transfer activity” value (STLV-1 IN (WT); [5]) was 1.932. The “STLV-1 WT strand transfer activity” value (STLV-1 IN (WT); [6]) was 3.125, the “STLV-1 WT strand transfer activity” value (STLV-1 IN (WT); log10 concentration -5.69897) was 25.9067 and the “STLV-1 WT strand transfer activity” value (STLV-1 IN (WT); [7]) was 14.0097. The “STLV-1 WT strand transfer activity” value (STLV-1 IN (WT); [8]) was 13.3929, the “STLV-1 WT strand transfer activity” value (STLV-1 IN (WT); log10 concentration -6.19791) was 38.342 and the “STLV-1 WT strand transfer activity” value (STLV-1 IN (WT); [9]) was 20.7729. The “STLV-1 WT strand transfer activity” value (STLV-1 IN (WT); [10]) was 15.625, the “STLV-1 WT strand transfer activity” value (STLV-1 IN (WT); log10 concentration -6.69897) was 40.9326 and the “STLV-1 WT strand transfer activity” value (STLV-1 IN (WT); [11]) was 26.57. For the same compound, the “STLV-1 WT strand transfer activity” value (STLV-1 IN (WT); [12]) was 43.3036, the “STLV-1 WT strand transfer activity” value (STLV-1 IN (WT); log10 concentration -7.19791) was 63.2124 and the “STLV-1 WT strand transfer activity” value (STLV-1 IN (WT); [13]) was 62.3188. The “STLV-1 WT strand transfer activity” value (STLV-1 IN (WT); [14]) was 68.75, the “STLV-1 WT strand transfer activity” value (STLV-1 IN (WT); log10 concentration -7.69897) was 94.3005 and the “STLV-1 WT strand transfer activity” value (STLV-1 IN (WT); [15]) was 86.4734. For the same compound, the “STLV-1 WT strand transfer activity” value (STLV-1 IN (WT); [16]) was 94.1964, the “STLV-1 WT strand transfer activity” value (STLV-1 IN (WT); log10 concentration -8.69897) was 91.7098 and the “STLV-1 WT strand transfer activity” value (STLV-1 IN (WT); [17]) was 100.483. For the same compound, the “STLV-1 WT strand transfer activity” value (STLV-1 IN (WT); [18]) was 99.1071, the “STLV-1 WT strand transfer activity” value (STLV-1 IN (WT); log10 concentration -9.69897) was 106.218 and the “STLV-1 WT strand transfer activity” value (STLV-1 IN (WT); log10 concentration -9.69897, column 1 of 3) was 101.449. The “STLV-1 WT strand transfer activity” value (STLV-1 IN (WT); log10 concentration -9.69897, column 2 of 3) was 100.446, the “STLV-1 WT strand transfer activity” value (STLV-1 IN (WT); log10 concentration -10.699) was 100.518 and the “STLV-1 WT strand transfer activity” value (STLV-1 IN (WT); [19]) was 102.415. The “STLV-1 WT strand transfer activity” value (STLV-1 IN (WT); [20]) was 99.5536, the “IC50 with STLV-1 IN A219E compared with wild-type STLV-1 IN” value (STLV-1 IN(A219E); Supplementary Fig. 9) was “nearly identical” and the “STLV-1 A219E strand transfer activity” value (STLV-1 IN(A219E); log10 concentration -3.69897) was 4.375. The “STLV-1 A219E strand transfer activity” value (STLV-1 IN(A219E); [3]) was 11.7647, the “STLV-1 A219E strand transfer activity” value (STLV-1 IN(A219E); [4]) was 5.393 and the “STLV-1 A219E strand transfer activity” value (STLV-1 IN(A219E); log10 concentration -4.69897) was 6.875. For the same compound, the “STLV-1 A219E strand transfer activity” value (STLV-1 IN(A219E); [5]) was 7.843, the “STLV-1 A219E strand transfer activity” value (STLV-1 IN(A219E); [6]) was 4.103 and the “STLV-1 A219E strand transfer activity” value (STLV-1 IN(A219E); log10 concentration -5.69897) was 7.8125. The “STLV-1 A219E strand transfer activity” value (STLV-1 IN(A219E); [7]) was 11.7647, the “STLV-1 A219E strand transfer activity” value (STLV-1 IN(A219E); [8]) was 9.8476 and the “STLV-1 A219E strand transfer activity” value (STLV-1 IN(A219E); log10 concentration -6.19791) was 12.6562. The “STLV-1 A219E strand transfer activity” value (STLV-1 IN(A219E); [9]) was 16.6667, the “STLV-1 A219E strand transfer activity” value (STLV-1 IN(A219E); [10]) was 12.4267 and the “STLV-1 A219E strand transfer activity” value (STLV-1 IN(A219E); log10 concentration -6.69897) was 25.4688. The “STLV-1 A219E strand transfer activity” value (STLV-1 IN(A219E); [11]) was 27.9412, the “STLV-1 A219E strand transfer activity” value (STLV-1 IN(A219E); [12]) was 28.136 and the “STLV-1 A219E strand transfer activity” value (STLV-1 IN(A219E); log10 concentration -7.19791) was 49.375. For the same compound, the “STLV-1 A219E strand transfer activity” value (STLV-1 IN(A219E); [13]) was 64.2157, the “STLV-1 A219E strand transfer activity” value (STLV-1 IN(A219E); [14]) was 59.4373 and the “STLV-1 A219E strand transfer activity” value (STLV-1 IN(A219E); log10 concentration -7.69897) was 90.625. The “STLV-1 A219E strand transfer activity” value (STLV-1 IN(A219E); [15]) was 108.333, the “STLV-1 A219E strand transfer activity” value (STLV-1 IN(A219E); [16]) was 86.2837 and the “STLV-1 A219E strand transfer activity” value (STLV-1 IN(A219E); log10 concentration -8.69897) was 101.406. The “STLV-1 A219E strand transfer activity” value (STLV-1 IN(A219E); [17]) was 107.843, the “STLV-1 A219E strand transfer activity” value (STLV-1 IN(A219E); [18]) was 97.5381 and the “STLV-1 A219E strand transfer activity” value (STLV-1 IN(A219E); log10 concentration -10.699) was 97.9688. The “STLV-1 A219E strand transfer activity” value (STLV-1 IN(A219E); [19]) was 103.922, the “STLV-1 A219E strand transfer activity” value (STLV-1 IN(A219E); [20]) was 99.8828 and the IC50 (recombinant HTLV-1 IN [1]; Replicate 1, read-out: HTLV-1 IN strand transfer IC50) was 477 nM. The IC50 (recombinant HTLV-1 IN [1]; Replicate 2, read-out: HTLV-1 IN strand transfer IC50) was 425 nM, the IC50 (recombinant HTLV-1 IN [1]; Replicate 3, read-out: HTLV-1 IN strand transfer IC50) was 344 nM and the IC50 (recombinant HTLV-1 IN [1]; integrase strand-transfer, read-out: HTLV-1 IC50 ± stdev) was 410 ± 78.5 nM. The EC50 (HIV-1; HIV-1 infection model, supplementary ref 18, read-out: HIV-1 EC50 ± stdev) was 9.4 ± 1.4 nM, the EC50 (HIV-1; previously reported, read-out: EC50, infection by wild-type HIV-1) was 4 ± 2 nM and the “HTLV-1 IN strand transfer activity (No drug = 100)” value (recombinant HTLV-1 IN [2]; Replicate 1) was 34.4506%. For the same compound, the “HTLV-1 IN strand transfer activity (No drug = 100)” value (recombinant HTLV-1 IN [2]; Replicate 2) was 36.5909%, the EC50 (HTLV-1; MT-2-Jurkat cell-to-cell infection, read-out: HTLV-1 EC50) was 6.42 ± 4.24 nM and the EC50 (HTLV-1; Replicate 1, previously reported values, read-out: HTLV-1 infection EC50) was 7.85 nM. For the same compound, the EC50 (HTLV-1; Replicate 2, previously reported values, read-out: HTLV-1 infection EC50) was 8.18 nM and the EC50 (HTLV-1; Replicate 3, previously reported values, read-out: HTLV-1 infection EC50) was 4.08 nM.
